Measurements from PMC7600243, “Live Imaging of Phosphate Levels in Arabidopsis Root Cells Expressing a FRET-Based Phosphate Sensor” (Plants, 2020).

Biological target: PiBP (Pi binding bacterial periplasmic Binding Protein) of the FLIPPi sensors FLIPPi-30m and FLIPPi-4µ
Conditions: pH 7.0; 20 mM Tris-HCl or MOPS; in planta, externally applied Pi buffer 0-200 mM; inhibitor dose response fit, variable slope

O=P(O)(O)O [Pi, inorganic phosphate]
Kd: 35 mM
